The source of these data is patent US20240408145A1, “Gene Therapy” (Ospedale San Raffaele S.r.l., priority 2021, published 2024).

“Also recorded” adds a separate entry of the source. Where a name gives a salt, the structure may show the parent alone.

Series [1] concerns the target T1, ATR (Mus musculus, UniProt Q9JKK8).
T1 construct: endogenous in cells; host or cells: 3T3TopBP1-ER cells
Conditions: 3T3TopBP1-ER cells; cited from earlier work.

For series [2], the system named is JNK. Conditions: cited from earlier work.
The target in series [3] is T2, JNK.
T2 construct: IC50; Ki
The note with it: cited from earlier work.

Series [4] deals with ATM kinase (Homo sapiens, UniProt Q13315). The note with it: cited from earlier work.
Series [5] concerns the target ATR (Homo sapiens, UniProt Q13535). The note with it: cited from earlier work.
Series [6] has as its system Mv1Lu cells. The note with it: read-out: IC50, TGFβ-induced AP-1 activation; cited from earlier work.
Series [7] relates to human recombinant MEK1, MKK4, IKKα, PKCα, Src, Syc and PDGFα. The note with it: at concentrations less than 30 μM; cited from earlier work.
The conditions of series [8]: cited from earlier work.
The subject of series [9] is JNK1, 2 and 3. The note with it: cited from earlier work.
Series [10] deals with human CD34+ HSPCs. Put plainly: HDR gene editing efficiency in HSPCs (ddPCR, GFP flow cytometry). The format is cell-based. (In flow cytometry, cells or beads pass a laser one at a time.)
Series [11] concerns JNK and JIP. The note with it: read-out: IC50, protein-protein interaction between JNK and JIP; cited from earlier work.
Series [12] concerns c-Jun phosphorylation. The note with it: cited from earlier work.
In series [13] the target is DYRK1a (Homo sapiens, UniProt Q13627). The note with it: cited from earlier work.
Series [14] concerns the target extracellular-signal-regulated kinase 8 (ERK8) (Homo sapiens, UniProt Q8TD08). Conditions: cited from earlier work.
Series [15] concerns the target PIM1 (Homo sapiens, UniProt P11309). The note with it: cited from earlier work.
For series [16], the target named is casein kinase 2 (CK2) (Homo sapiens, UniProt P68400). The note with it: cited from earlier work.
For series [17], the target named is HIPK2 (Homo sapiens, UniProt Q9H2X6). Conditions: cited from earlier work.
Series [18] concerns the target BRD4 (Homo sapiens, UniProt O60885). Conditions: cited from earlier work.
Series [19] relates to edited human CD34+ HSPCs. Put plainly: CD34+ HSPC xenotransplantation in NSG mice. The note with it: inhibitor at time of ex vivo GE (GSE56: limiting cell doses). The format is in vivo.
The subject of series [20] is IL1A, IL8, IL6, CCL2. Put plainly: Inflammatory cytokine expression in edited HSPCs (qPCR). The format is cell-based, human. Conditions: CB HSPCs, HS/AAV6; inhibitor at time of GE vs standard protocol. A general note: Quantitative PCR measures a nucleic acid by following its amplification.
Series [21] deals with human CD34+ HSPCs. Put plainly: Colony-forming unit cell (CFU-C) assay. Conditions: CB HSPCs, HS/AAV6; inhibitor at time of GE vs standard protocol; 24 h and 96 h post GE. The format is cell-based.
Series [22] relates to BM-derived human CD34+ cells. The series can be described thus: Senescence markers (p16, SA-β-Gal) in BM-derived cells of the human graft. The format is in vivo, NSG mice. Conditions: NSG mice, endpoint 15-18 weeks; inhibitor at time of ex vivo GE.
Series [23] deals with BM-derived human CD34+ cells. The series can be described thus: CFU-C assay of CD34+ cells retrieved from bone marrow of primary recipients. The format is cell-based. The note with it: 15-18 weeks, inhibitor at time of ex vivo GE vs standard protocol.
Series [24] concerns IL8, CXCL10, p21, p16. Put plainly: Gene expression in BM-derived HSPCs (qPCR). The format is cell-based, human. Conditions: 18 weeks post transplantation, HS/AAV6 ± GSE56. On the procedure: For gene expression analyses, total RNA was extracted using either miRNeasy Micro Kit (QIAGEN) according to the manufacturer's instructions and DNase treatment was performed using RNase-free DNase Set (QIAGEN). cDNA was synthetized with iScript cDNA Synthesis Kit (Bio-Rad). cDNA was then pre-amplified using TaqMan PreAmp Master Mix (ThermoFisher) and used for q-PCR in a Viia7 Real-time PCR thermal cycler using both Fast SYBR Green Master Mix (Thermofisher), after standard curve method optimization to reach the 100% primer efficiency for each couple of primers listed in 1. The relative expression of each target gene was first normalized to GUSB housekeeping genes expression and then represented as 2^-DCt for each sample or as fold changes (2^-DDCt) relative to the indicated control conditions.

Sequence of casein kinase 2 (CK2) (P68400 whole entry): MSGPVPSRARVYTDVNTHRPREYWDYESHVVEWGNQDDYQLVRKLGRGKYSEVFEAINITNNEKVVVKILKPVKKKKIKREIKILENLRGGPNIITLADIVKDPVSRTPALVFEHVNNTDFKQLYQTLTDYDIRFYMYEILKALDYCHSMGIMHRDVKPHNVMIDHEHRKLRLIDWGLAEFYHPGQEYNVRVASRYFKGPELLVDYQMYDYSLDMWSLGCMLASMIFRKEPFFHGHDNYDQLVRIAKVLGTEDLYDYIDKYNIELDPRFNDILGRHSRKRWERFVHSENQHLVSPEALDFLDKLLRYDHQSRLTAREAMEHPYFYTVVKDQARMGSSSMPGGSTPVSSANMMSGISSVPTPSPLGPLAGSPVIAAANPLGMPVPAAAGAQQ
Sequence of ATR (Homo sapiens, UniProt Q13535) (Q13535 whole entry): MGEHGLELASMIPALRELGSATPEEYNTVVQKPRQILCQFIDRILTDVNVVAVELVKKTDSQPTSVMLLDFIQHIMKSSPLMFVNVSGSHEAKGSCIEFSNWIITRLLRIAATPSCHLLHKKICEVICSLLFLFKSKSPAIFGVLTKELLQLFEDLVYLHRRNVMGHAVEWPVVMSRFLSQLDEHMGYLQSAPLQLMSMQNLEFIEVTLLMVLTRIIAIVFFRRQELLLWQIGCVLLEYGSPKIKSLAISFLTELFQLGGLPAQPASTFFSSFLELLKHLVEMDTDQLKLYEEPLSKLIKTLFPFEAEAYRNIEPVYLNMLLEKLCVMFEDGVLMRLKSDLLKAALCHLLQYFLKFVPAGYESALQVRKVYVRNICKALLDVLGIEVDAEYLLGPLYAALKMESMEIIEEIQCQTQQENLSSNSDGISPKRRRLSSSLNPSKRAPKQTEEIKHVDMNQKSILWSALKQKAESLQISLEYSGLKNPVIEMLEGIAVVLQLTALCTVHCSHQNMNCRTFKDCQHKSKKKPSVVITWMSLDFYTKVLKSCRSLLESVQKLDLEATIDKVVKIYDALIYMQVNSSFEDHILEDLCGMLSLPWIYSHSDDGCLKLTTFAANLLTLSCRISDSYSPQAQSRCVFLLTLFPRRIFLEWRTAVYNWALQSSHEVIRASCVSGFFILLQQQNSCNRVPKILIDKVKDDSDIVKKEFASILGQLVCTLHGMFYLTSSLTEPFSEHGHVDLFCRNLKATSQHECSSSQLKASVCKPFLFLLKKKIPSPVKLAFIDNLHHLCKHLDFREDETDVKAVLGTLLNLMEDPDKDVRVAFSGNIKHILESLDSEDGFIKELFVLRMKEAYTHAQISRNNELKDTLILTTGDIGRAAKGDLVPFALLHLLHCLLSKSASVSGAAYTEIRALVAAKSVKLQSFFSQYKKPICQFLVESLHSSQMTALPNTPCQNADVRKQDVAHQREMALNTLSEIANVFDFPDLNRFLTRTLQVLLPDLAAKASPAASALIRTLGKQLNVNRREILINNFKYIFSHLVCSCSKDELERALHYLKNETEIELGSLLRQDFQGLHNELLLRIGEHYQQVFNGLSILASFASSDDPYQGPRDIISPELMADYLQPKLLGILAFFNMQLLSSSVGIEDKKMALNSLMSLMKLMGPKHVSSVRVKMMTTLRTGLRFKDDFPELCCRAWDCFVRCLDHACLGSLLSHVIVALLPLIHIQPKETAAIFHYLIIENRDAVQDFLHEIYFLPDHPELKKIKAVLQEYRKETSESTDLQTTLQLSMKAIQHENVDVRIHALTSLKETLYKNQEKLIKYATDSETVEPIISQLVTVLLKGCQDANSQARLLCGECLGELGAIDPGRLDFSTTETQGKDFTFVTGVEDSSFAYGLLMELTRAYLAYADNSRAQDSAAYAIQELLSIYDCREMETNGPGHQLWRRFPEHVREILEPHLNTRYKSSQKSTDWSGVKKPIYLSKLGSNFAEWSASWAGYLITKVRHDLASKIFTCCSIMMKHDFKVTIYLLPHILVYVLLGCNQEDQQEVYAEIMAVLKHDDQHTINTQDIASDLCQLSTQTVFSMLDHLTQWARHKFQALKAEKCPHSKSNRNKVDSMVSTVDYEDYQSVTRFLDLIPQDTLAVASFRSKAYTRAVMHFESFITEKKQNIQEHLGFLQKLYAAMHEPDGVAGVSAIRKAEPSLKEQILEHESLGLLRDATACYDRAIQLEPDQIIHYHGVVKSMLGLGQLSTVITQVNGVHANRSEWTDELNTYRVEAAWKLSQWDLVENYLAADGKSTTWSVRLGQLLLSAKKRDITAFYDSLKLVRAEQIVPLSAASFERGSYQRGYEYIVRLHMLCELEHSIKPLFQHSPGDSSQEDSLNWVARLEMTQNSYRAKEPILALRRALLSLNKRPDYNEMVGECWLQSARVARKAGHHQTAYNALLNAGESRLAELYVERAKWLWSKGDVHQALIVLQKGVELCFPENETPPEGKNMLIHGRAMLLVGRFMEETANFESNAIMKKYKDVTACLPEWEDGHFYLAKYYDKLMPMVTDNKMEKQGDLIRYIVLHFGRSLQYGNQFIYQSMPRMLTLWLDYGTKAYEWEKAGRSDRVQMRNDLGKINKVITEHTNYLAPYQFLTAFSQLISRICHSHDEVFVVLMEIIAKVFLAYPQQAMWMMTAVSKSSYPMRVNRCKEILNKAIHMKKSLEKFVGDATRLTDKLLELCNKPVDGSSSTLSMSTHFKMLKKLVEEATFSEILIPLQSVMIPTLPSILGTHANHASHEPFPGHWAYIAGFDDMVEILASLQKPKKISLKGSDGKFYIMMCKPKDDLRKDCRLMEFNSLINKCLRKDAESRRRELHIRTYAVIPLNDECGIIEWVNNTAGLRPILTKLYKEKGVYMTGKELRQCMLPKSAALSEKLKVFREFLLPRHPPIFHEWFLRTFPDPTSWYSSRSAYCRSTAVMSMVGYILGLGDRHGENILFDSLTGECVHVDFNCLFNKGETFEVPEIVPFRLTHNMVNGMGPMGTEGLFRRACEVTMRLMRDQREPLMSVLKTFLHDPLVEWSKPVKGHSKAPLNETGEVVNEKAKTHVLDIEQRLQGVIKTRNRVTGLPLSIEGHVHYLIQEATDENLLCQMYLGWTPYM
Sequence of ATR (Homo sapiens, UniProt Q13535) (Q8WXE1 whole entry partner): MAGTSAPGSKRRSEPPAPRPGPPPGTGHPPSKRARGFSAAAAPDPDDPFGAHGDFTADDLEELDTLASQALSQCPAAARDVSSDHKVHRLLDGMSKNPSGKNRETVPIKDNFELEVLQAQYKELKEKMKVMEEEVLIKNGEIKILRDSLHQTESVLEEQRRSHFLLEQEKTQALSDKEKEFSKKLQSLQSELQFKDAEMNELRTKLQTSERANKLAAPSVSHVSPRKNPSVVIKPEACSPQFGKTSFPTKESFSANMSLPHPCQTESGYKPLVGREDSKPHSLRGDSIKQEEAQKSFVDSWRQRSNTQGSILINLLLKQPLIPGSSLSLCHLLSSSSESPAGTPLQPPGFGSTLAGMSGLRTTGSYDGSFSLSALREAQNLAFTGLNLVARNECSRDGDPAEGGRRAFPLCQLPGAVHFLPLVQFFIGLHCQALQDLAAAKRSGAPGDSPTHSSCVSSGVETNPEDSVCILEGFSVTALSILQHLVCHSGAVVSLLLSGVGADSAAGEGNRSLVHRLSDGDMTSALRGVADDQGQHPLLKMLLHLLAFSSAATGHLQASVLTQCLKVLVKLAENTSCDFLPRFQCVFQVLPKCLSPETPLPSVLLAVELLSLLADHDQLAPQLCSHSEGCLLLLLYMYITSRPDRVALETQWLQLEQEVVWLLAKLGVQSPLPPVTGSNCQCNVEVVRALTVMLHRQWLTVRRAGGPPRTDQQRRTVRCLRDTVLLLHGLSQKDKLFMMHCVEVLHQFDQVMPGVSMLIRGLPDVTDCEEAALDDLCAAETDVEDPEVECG
Sequence of extracellular-signal-regulated kinase 8 (ERK8) (Q8TD08 whole entry, species assumed): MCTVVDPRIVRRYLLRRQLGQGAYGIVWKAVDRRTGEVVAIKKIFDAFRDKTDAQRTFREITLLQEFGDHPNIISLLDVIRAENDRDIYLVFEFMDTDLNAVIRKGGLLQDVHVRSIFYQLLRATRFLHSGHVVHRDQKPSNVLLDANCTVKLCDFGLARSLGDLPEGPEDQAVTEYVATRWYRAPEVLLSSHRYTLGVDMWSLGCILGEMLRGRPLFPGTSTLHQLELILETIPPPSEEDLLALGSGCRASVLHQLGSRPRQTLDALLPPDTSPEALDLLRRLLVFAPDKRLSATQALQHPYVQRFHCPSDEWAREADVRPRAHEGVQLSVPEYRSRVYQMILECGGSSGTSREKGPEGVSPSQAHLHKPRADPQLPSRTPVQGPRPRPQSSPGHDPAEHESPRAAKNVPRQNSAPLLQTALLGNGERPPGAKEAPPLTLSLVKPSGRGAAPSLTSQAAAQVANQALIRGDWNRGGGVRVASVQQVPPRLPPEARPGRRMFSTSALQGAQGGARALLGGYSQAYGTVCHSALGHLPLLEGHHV
Sequence of PIM1 (P11309 whole entry, species assumed): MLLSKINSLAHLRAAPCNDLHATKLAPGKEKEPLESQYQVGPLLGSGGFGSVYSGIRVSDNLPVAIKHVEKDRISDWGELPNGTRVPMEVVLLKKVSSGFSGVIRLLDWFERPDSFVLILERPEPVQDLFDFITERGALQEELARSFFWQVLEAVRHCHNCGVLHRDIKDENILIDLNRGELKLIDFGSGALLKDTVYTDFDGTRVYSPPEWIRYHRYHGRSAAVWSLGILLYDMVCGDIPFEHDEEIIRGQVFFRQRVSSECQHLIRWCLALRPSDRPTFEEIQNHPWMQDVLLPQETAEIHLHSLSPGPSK

In general, IC50 refers to the concentration that inhibits the measured activity by half. Take `Cn1c(=O)n(-c2ccc(C(C)(C)C#N)cc2)c2c3cc(-c4cnc5ccccc5c4)ccc3ncc21` [BEZ235]: the IC50 in [1] is about 21 nM.

Usually Ki stands for a dissociation constant, usually derived from enzyme kinetics or from competition with a known ligand. For the molecule `Cl.Cl.c1cc(OCCN2CCCCC2)cc(-c2n[nH]c3ccc(-c4ncn[nH]4)cc23)c1` [CC 401 dihydrochloride, 3-[3-[2-(1-Piperidinyl)ethoxy]phenyl]-5-(1H-1,2,4-triazol-5-yl)-1H-indazole dihydrochloride], the “selectivity for JNK over p38, ERK, IKK2, protein kinase C, Lck and ZAP70” value in [2] was over 40 fold. The Ki in series [3] was 25 to 50 nM.

Consider `O=C(NC(NC(=S)Nc1ccc(F)c([N+](=O)[O-])c1)C(Cl)(Cl)Cl)C(c1ccccc1)c1ccccc1` (centres unmarked) [CGK 733], for which the IC50 in [4] and in [5] was about 200 nM each time.

As to `Nc1n[nH]c2nnc(-c3c(-c4ccccc4)nn4ccccc34)cc12` [FR180204, 5-(2-Phenyl-pyrazolo[1,5-a]pyridin-3-yl)-1H-pyrazolo[3,4-c]pyridazin-3-ylamine], the IC50 in series [6] was 3100 nM. For the same molecule, in series [7], the “activity against MEK1, MKK4, IKKα, PKCα, Src, Syc and PDGFα” value is “no activity”.

As to `O=c1cc(-c2cccc3c2Sc2ccccc2S3)oc(N2CCOCC2)c1` [KU-55933], the solubility entry in series [8] was “soluble in DMSO and ethanol”.

Take `C[S+]([O-])c1ccc(-c2nc(-c3ccncc3)c(-c3ccc(F)cc3)[nH]2)cc1` (centres unmarked) [SB 203580 hydrochloride]: in series [8], the solubility entry is “water-soluble”.

As to `O=C1c2ccccc2-c2n[nH]c3cccc1c23` [SP600125, Anthra[1-9-cd]pyrazol-6(2H)-one], the IC50 in series [9] was 40 to 90 nM. In addition, the “GFP levels in HSPC subpopulations (GE efficiency)” value in series [10] (CB HSPCs, Erk (4 μM) or Jnk (2 μM) inhibitor day 1 and 2 vs DMSO, 96 h post-editing) is “increase in GFP levels”. The “Percentage of more primitive edited cells” value in series [10] (Jnk inhibitor 2 μM day 1 and 2) is reported as “higher percentage of more primitive edited cells”.

In the case of `Nc1nnc(Sc2ncc([N+](=O)[O-])s2)s1` [SU 3327, 5-[(5-Nitro-2-thiazolyl)thio]-1,3,4thiadiazol-2-amine], the IC50 in [11] was 239 nM; in series [3], 700 nM.

What is called EC50 is the concentration that produces a half-maximal response. `CCOc1nc(NC(=O)Cc2cc(OC)ccc2OC)cc(N)c1C#N` [TCS JNK 6o, N-(4-Amino-5-cyano-6-ethoxy-2-pyridinyl)-2,5-dimethoxybenzeneacetamide]: the EC50 in series [12] is 920 nM.

Turning to `CN(C)c1nc2c(Br)c(Br)c(Br)c(Br)c2n1CC(=O)O` [TMCB, 2-(4,5,6,7-Tetrabromo-2-(dimethylamino)-1H-benzo[d]imidazol-1-yl)acetic acid], the Ki is 11900 nM in [13], 8650 nM in series [15], 250 nM in series [16] and 15200 nM in [17]. Further, the IC50 in series [14] and in series [16] was 500 nM each time.

For orientation: Kd means a measure of binding affinity in units of concentration. For `CCOc1cc(N2CCC(O)CC2)ccc1Nc1ncc2c(n1)N(C)c1ccccc1C(=O)N2C` [XMD 8-92, 2-[[2-Ethoxy-4-(4-hydroxy-1-piperidinyl)phenyl]amino]-5,11-dihydro-5,11-dimethyl-6H-pyrimido[4,5-b][1,4]benzodiazepin-6-one], the dissociation constant Kd in series [18] was 190 nM.

B1: GSE56: mRNA encoding for a dominant negative p53 truncated form (GSE56), co-electroporated; SEQ ID No. 8 and 9 (nucleic acid)
sense: ATGGATGGATGGTGTCCTGGGAGAGACCGTCGGACAGAGGAAGAAAATTTCCGCAAAAAAGAAGAGCATTGCCCGGAGCTGCCCCCAGGGAGTGCAAAGAGAGCACTGCCCACCAGCACAAGCTCCTCTCCCCAGCAAAAGAAAAAACCACTCGATGGAGAATATTTCACCCTTAAGATCCGTGGGCGTGAGCGCTTCGAGATGTTCCGAGAGCTGAATGAGGCCTTGGAATTAAAGGATGCCCGTGCTGCCGAGGAGTCAGGAGACAGCAGGGCTCACTCCAGCTACCCGAAGATAGTTAGTTAG
As to B1, in series [19], the “Human CD45+ engraftment in peripheral blood vs standard protocol” value was “fourfold higher engraftment than the standard protocol”. In addition, the “Relative expression of inflammatory cytokine genes (IL1A, IL8, IL6, CCL2)” value in [20] is reported as “downregulation of the cytokines”. Further, the “Number of colonies (HSPC clonogenic potential)” value in series [21] is listed as “similarly increased”. Moreover, in series [22], the “Percentage of senescent cells (p16, SA-β-Gal) in BM-derived CD34+ / HDR-edited cells of the human graft” value is on record as “prevented the accumulation of the senescence marker SA-β-gal; also recorded: this reduction was observed also upon p53 inhibition”. Also, the “Percentage of HDR-edited alleles (ddPCR)” value in series [10] (CB HSPCs, AAVS1 editing (HS/AAV6), inhibitor at time of GE (Anakinra 50 ng/μl, SC514 25 μM, GSE56 mRNA, ATMi) vs standard protocol) is reported as “tended to increase the percentage of HDR editing”. Further, in series [23], the “Number of colonies formed by BM-derived CD34+ cells” value was “improvement of HSPC clonogenic potential upon p53 inhibition; also recorded: became higher upon p53 inhibition”. Moreover, the “mRNA levels of p21, p16 and IL8 in BM-derived HSPCs” value in series [24] was “mitigated by the administration of GSE56”.
